The values that follow come from patent publication US20020010317A1, “Method for generating immunogens that elicit neutralizing antibodies against fusion-active regions of HIV envelope proteins” (priority 2000, published 2002).

Test [1] deals with HIV-1 envelope mediated cell-cell fusion. The settings on record: cited from earlier work.
For test [2], the target named is gp41 (HXB2 strain) (Human immunodeficiency virus type 1 group M subtype B, UniProt P04578).
Test [3] deals with divergent HIV-1 virus isolates. The experiment in a line: immunization of guinea pigs with P-18, neutralizing antibody response. It is filed as in vivo, guinea pig. The settings on record: two of three animals; 100 μg intramuscularly in Freund's adjuvant. As to the method:
Antibody binding assays can be used to determine the ability of the immunogen vaccines to generate an immune response to various forms of envelope (native vs. denatured). Virus neutralization assays can be used to characterize the antibody response raised against the gp41 domains. The most encouraging results have been from animals immunized with the peptide P-18 modeling the C-helix entry domain (amino acid residues 643-678 of gp41 ).
Guinea pigs were immunized intramuscularly with 100 μg of P-18 formulated in either Freund's complete (prime) or incomplete (boost) adjuvant. Animals were immunized on days 0, 21, 34, 48 and 62. Blood was collected on days 44,58 and 72. In our initial screen, sera at a 1:10 dilution were tested for the ability to inhibit virus-induced cell killing. In these assays, two of the three animals receiving the P-18 peptide (guinea pigs 233 and 234) were able to block the cytopathic effects of a pair of prototypic HIV-1 isolates. Against the MN isolate, >80% protection was achieved, while against the RF isolate, protection was >50%.

gp41 (HXB2 strain), sequence (P04578 512-856): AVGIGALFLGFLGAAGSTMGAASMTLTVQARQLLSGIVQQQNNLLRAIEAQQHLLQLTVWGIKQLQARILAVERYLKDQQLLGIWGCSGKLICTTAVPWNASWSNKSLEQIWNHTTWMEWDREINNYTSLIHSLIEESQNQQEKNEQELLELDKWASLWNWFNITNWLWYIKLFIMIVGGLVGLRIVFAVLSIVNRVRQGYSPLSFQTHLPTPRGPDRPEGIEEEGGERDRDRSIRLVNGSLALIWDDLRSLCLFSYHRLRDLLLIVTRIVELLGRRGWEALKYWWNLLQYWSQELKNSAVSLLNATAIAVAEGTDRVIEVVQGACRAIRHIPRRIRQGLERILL

Regarding “NNLLRAIEAQQHLLQLTVWQIKQLQARILAVERYLKDQ (NNLLRAIEAQQHLLQLTVWGIKQLQARILAVERYLKDQ) [DP-107]”, in test [1], the “level inhibiting cell-cell fusion” value is on record as “sub-μg/ml levels”. For the substance P-18-GGG-YPYDVPDYAGPG [P-18HA], the “binding to and co-immunoprecipitation of gp41” value in test [2] is “bound to and co-immunoprecipitated gp41”. In the case of enfuvirtide, the “neutralizing antibody response in immunized animals” value in test [3] is listed as “exhibited a neutralizing antibody response against divergent virus isolates”. The “concentration inhibiting envelope mediated cell-cell fusion” value in test [1] (concentrations as low as) was “about 1 ng/ml”.
